Results: patent US20240352121A1, “LAIR-1 AGONISTIC ANTIBODIES AND METHODS OF USE THEREOF” (NEXTCURE, INC., priority 2023, published 2024)

Tested on: SHP-1
Experiment: SHP-1 phosphorylation in primary patient AML blasts (Western blot)
Type: cell-based, human
Settings: collagen alone
Procedure: FIGS. 4A-4O show the collagen matrix is vital to LAIR-1 induced AML cell death. (FIGS. 4A-C). Flow cytometry quantification of primary live, dead, or apoptotic total blood leukocytes after ex vivo treatment with 10 μg/mL IgG isotype control (gray) or LAIR-1 mAb (red) in the presence (FIG. 4A) or absence (FIG. 4B) of exogenous collagen, or (FIG. 4C), CD451^Lo SSC^Lo blast cells in the presence of isotype control or LAIR-1 mAb. N=3 technical replicates. […] Each dot represents an individual donor. Red shading highlights surface expression >20000 arbitrary units. Blue shading highlights expression <20000 units. Line represents simple linear regression. […] N=4-7 donors. […] Mean pixel density from Western blotting normalized to isotype control condition and graphed relative to total SHP-1. N=3 technical replicates. […] FIGS. 4M and 4N) 4E-BP1 expression as measured by Lumit assay (FIG. 4M) or cleaved caspase-7 as measured by Western blot (FIG. 4N) of cells treated as shown in FIGS. 4I-4K. […] P values calculated by Student's t test. […]
For assessment of signaling in healthy cells, human monocytes were isolated from PBMCs from two donors using a StemCell monocyte isolation kit (StemCell, Vancouver, BC). […] Data were quantified using FIJI (NIH, MD).

“collagen: plate-coated human Collagen I, LAIR-1 ligand, mimics an extracellular matrix [reference compound]” was tested, and the “pSHP-1 relative to control” value was “limited increase”.
